Measurements from US9879050B2, “Substituted urea depsipeptide analogs as activators of the CLPP endopeptidase” (priority 2013, dated 2018).
Converted amounts (≈) assume the structure as drawn. Like-named read-outs stand apart in the source and are kept apart here. *1 amine or outer side, *2 acyl side, *3 side chain or, on linkers, in order; H or OH if unused. Where a SMILES comes first, the peptide text is derived from it. Bridges are numbered along the chain shown (N, C = ends). [ ]: non-standard residue; d: D form. The star is where a group is joined. Phe(3,5-F2) = N[C@@H](Cc1cc(F)cc(F)c1)C(=O)O; Pro(4S-Me) = C[C@@H]1CN[C@H](C(=O)O)C1; NH(4-Et-phenyl) = CCc1ccc(N*)cc1; aThr = C[C@H](O)[C@H](N)C(=O)O; Pip = O=C(O)[C@@H]1CCCCN1; CO = O=C([*:1])[*:2]

Assays:
S. aureus ClpP (Sa-ClpP) = target: T1, S. aureus ClpP (Sa-ClpP) (Staphylococcus aureus, UniProt Q2G036); assay: ClpP activation, casein-BODIPY digestion assay (first described method); format: biochemical; conditions: first described ClpP activation assay (**); 10 μM saClpP, 25 μg/ml BODIPY FL casein, 37° C.; read-out: ClpP Activation EC50
T1 construct: made in house; host or cells: E. coli BL21 (DE3)
T1 sequence (Q2G036 whole entry): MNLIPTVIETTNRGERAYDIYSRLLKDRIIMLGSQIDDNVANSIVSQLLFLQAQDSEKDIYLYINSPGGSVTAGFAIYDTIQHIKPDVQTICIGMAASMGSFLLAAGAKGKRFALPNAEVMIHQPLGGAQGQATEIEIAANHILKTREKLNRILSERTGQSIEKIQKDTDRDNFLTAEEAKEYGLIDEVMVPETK
Description: The compounds were assayed in a casein digestion assay in order to determine their effect on ClpP activation. Briefly, the assay was carried out using S. aureus ClpP (“Sa-ClpP”) overexpressed in E. coli BL21 (DE3) and purified in a two-step process. Purity of the protein was assessed through SDS PAGE analysis. EC50 evaluations were conducted in triplicate in a 20 μl assay format using a method adapted from Maurizi et al. (Methods Enzymol. (1994) 244:314-331.). Each well contained 10 μM saClpP, 25 μg/ml BODIPY FL casein (Invitrogen Corporation, San Diego, Calif.), and test compound in concentrations ranging between 0-100 μM in assay buffer (50 mM Tris pH 8, 200 mM KCl, and 1 mM TCEP). The reaction took place at 37° C. Fluorescence (excitation 485 nm; emission 528 nm) was measured in five minute intervals over a 45 min period using a BioTek HT fluorescence microplate reader (BioTek Instruments, Inc., Winooski, Vt.). Velocity of each reaction was calculated and data was fit to a dose response curve using GraphPad Prism® software (GraphPad Software, Inc., La Jolla, Calif.). EC50 is the effective concentration of compound which causes 50% activation of S. aureus ClpP in the foregoing BODIPY FL casein assay.

Sa-ClpP [1] = target: T2, Sa-ClpP (Staphylococcus aureus, UniProt Q2G036); assay: ClpP activation, EnzCheck Protease Assay with Bodipy-FL casein (second described method); format: biochemical, S. aureus; conditions: read-out: ClpP Activation EC50 (converted)
T2 construct: made in house; host or cells: E. coli BL21 (DE3)
T2 sequence (Q2G036 whole entry): as above
Procedure, shortened: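 Sa-ClpP (2 μM in master mix) with Bodipy-FL casein (2 μM in master mix) in Tris-HCl pH 8.0, 0.01% Triton X-100, compounds in 2% DMSO, triplicate. Fluorescence (ex 485/em 520 nm) followed 30 min; degradation slopes normalized to ADEP4 and DMSO controls, EC50 and % activation by four-parameter fit.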

Sa-ClpP [2] = target: T2, Sa-ClpP; assay: ADEP displacement fluorescence polarization assay; format: binding, S. aureus; conditions: 1 μM Sa-ClpP, 50 nM FP probe ADEP 2591; read-out: ADEP Displacement IC50
Procedure, shortened: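 Displacement of TAMRA-labelled ADEP 2591 probe (50 nM) from 1 μM Sa-ClpP, pre-equilibrated 1 h in Tris·HCl pH 8.0 with 2% DMSO, then 120 min at room temperature with compound, triplicate. Polarization (mP) read ex 530/em 579 nm, normalised to 20 μM ADEP 2378 and DMSO controls; four-parameter fit.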

[3] = Cytotoxicity assay, CellTiter-Glo cell viability; format: cell-based; conditions: African green monkey
Procedure, shortened: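 Vero cells seeded overnight at 37 °C in DMEM with 10% FBS, then exposed to serial dilutions of compound for 72 h. Viability read by CellTiter-Glo luminescence; IC50 from duplicates, given as the range of two independent experiments.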

S. aureus USA 300 ΔClpP = assay: Minimal inhibitory concentration, microbroth dilution; format: cell-based, Staphylococcus aureus; conditions: ClpP inactivated strain
Procedure, shortened: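 Compound was diluted twofold in the appropriate broth. Bacterial suspension (approx. 10^5 cfu/mL) was then added in equal volume, giving a maximum test concentration of 200 μM. After aerobic overnight incubation at 37 °C, wells were inspected visually for growth.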

S. pneumoniae R6 = assay: as above; format: cell-based; conditions: Streptococcus pneumoniae, R6, read-out: Minimal Inhibitory Concentration S. pneumoniae R6
Procedure, shortened: (§1)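 Twofold serial dilutions in broth per CLSI M7-A7 microbroth dilution, incubated aerobically overnight at 37° C. MIC read visually as lowest concentration preventing bacterial growth.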

S. pyogenes ATCC 700294 = assay: as above; format: cell-based; conditions: Streptococcus pyogenes, ATCC700294, read-out: Minimal Inhibitory Concentration S. pyogenes ATCC 700294
Procedure, shortened: as §1

B. subtilis ATCC 23857 = assay: as above; format: cell-based; conditions: Bacillus subtilis, ATCC23857, read-out: Minimal Inhibitory Concentration B. subtilis ATCC 23857
Description: (§2) Minimal inhibitory concentrations (“MICs”) were determined using the microbroth dilution method according to Clinical Laboratory Standards Institute (CLSI; National, C.F. C. L. S., Methods for Dilution Antimicrobial Susceptibility Tests for Bacteria Grow aerobically-Seventh Edition: Approved Standard M7-A7, CLSI, Wayne, Pa., USA, 2008) and were read by visual inspection. Two fold serial dilutions of test compound in 100 μL of the appropriate broth media were first prepared in 96-well round bottom microtiter plates (Nalgene Nunc International, Rochester, N.Y., USA). An equivalent volume (100 μL) of bacterial broth inocula containing approximately 10^5 bacterial cfu/mL was added to each well to give final concentrations of test compound starting at 200 μM. The plates were then incubated aerobically at 37° C. All strains were incubated overnight. After incubations, in all cases the MIC was recorded as the lowest concentration of drug that prevented bacterial growth. The bacterial strains for which MIC was determined as described in Table 4.

S. aureus ATCC 29213 = assay: as above; format: cell-based; conditions: Staphylococcus aureus, ATCC29213, read-out: Minimal Inhibitory Concentration S. aureus ATCC 29213
Description: as §2

[4] = Vero cells, 72 hours, read-out: Cytotoxicity IC50

Structure (SMILES)	EC50 (S. aureus ClpP (Sa-ClpP)) [µM]	EC50 (Sa-ClpP [1]) [µM]	IC50 (Sa-ClpP [2]) [µM]	IC50 at 72 h [3] [µM]	IC50 at 72 h ([3]; Vero kidney epithelial cells (ATCC CCL-81), Vero cells, 72 hours, read-out: Cytotoxicity IC50) [µM]	IC50 at 72 h [3, 4] [µM]	Minimal Inhibitory Concentration S. aureus USA 300 ΔClpP (S. aureus USA 300 ΔClpP) [µM]	MIC (S. pneumoniae R6) [µM]	MIC (S. pyogenes ATCC 700294) [µM]	MIC (B. subtilis ATCC 23857) [µM]	MIC (S. aureus ATCC 29213) [µM]
CCc1cccc(NC(=O)N[C@@H](Cc2ccccc2)C(=O)N[C@H]2COC(=O)[C@@H]3C[C@@H](C)CN3C(=O)[C@H](C)NC(=O)[C@@H]3CCCCN3C(=O)[C@@H]3CCCN3C2=O)c1 [Compound 10, (S)—N-((2R,6S,8aS,14aS,20S,23aS)-2,6-Dimethyl-5,8,14,19,23-Pentaoxooctadecahydro-1H,5H,14H,19H-Pyrido[2,1-1]Dipyrrolo[2,1-C:2′,1′-L][1]Oxa[4,7,10,13]Tetraazacyclohexadecin-20-Yl)-2-(3-(3-Ethylphenyl)Ureido)-3-Phenylpropanamide]	1.5 ± 0.6	0.9 ± 0.018	13.6 ± 1.7	74.8 ± 4.6							
C[C@@H]1C[C@H]2C(=O)OC[C@H](NC(=O)[C@H](Cc3cc(F)cc(F)c3)NC(=O)Nc3ccc(OC(F)(F)F)cc3)C(=O)N3CCC[C@H]3C(=O)N3CCCC[C@H]3C(=O)N[C@@H](C)C(=O)N2C1 [Compound 13, (S)-3-(3,5-Difluorophenyl)-N-((2R,6S,8aS,14aS,20S,23aS)-2,6-Dimethyl-5,8,14,19,23-Pentaoxooctadecahydro-1H,5H,14H,19H-Pyrido[2,1-I]Dipyrrolo[2,1-C:2′,1′-L][1]Oxa[4,7,10,13]Tetraazacyclohexadecin-20-Yl)-2-(3-(4-(Trifluoromethoxy)Phenyl)Ureido)Propanamide]	3.2 ± 0.6		5.69 ± 0.5	70.9 ± 8.9							
CCc1ccc(NC(=O)N[C@@H](Cc2cc(F)cc(F)c2)C(=O)N[C@H]2COC(=O)[C@@H]3C[C@@H](C)CN3C(=O)[C@H](C)NC(=O)[C@@H]3CCCCN3C(=O)[C@@H]3CCCN3C2=O)cc1 [Compound 14, (S)-3-(3,5-Difluorophenyl)-N-((2R,6S,8aS,14aS,20S,23aS)-2,6-Dimethyl-5,8,14,19,23-Pentaoxooctadecahydro-1H,5H,14H,19H-Pyrido[2,1-I]Dipyrrolo[2,1-C:2′,1′-L][1]Oxa[4,7,10,13]Tetraazacyclohexadecin-20-Yl)-2-(3-(4-Ethylphenyl)Ureido)Propanamide]	2.5 ± 0.6		61.3 ± 5	70.5 ± 13.5							
CCc1ccc(NC(=O)N[C@@H](Cc2cc(F)cc(F)c2)C(=O)N[C@@H]2C(=O)N3CCC[C@H]3C(=O)N3CCCC[C@H]3C(=O)N[C@@H](C)C(=O)N3C[C@@H](C)C[C@H]3C(=O)O[C@H]2C)cc1 [Compound 21, (S)-3-(3,5-Difluorophenyl)-2-(3-(4-Ethylphenyl)Ureido)-N-((2R,6S,8aS,14aS,20S,21S,23aS)-2,6,21-Trimethyl-5,8,14,19,23-Pentaoxooctadecahydro-1H,5H,14H,19H-Pyrido[2,1-I]Dipyrrolo[2,1-C:2′,1′-L][1]Oxa[4,7,10,13]Tetraazacyclohexadecin-20-Yl)Propanamide] ({NH(4-Et-phenyl)-CO}-[Phe(3,5-F2)][aThr]P[Pip]A[Pro(4S-Me)]; ester 2-C)	1.1 ± 0.3	0.33	7.3 ± 0.3		68.5 ± 6.6						
Cc1ccc(NC(=O)N[C@@H](Cc2cc(F)cc(F)c2)C(=O)N[C@@H]2C(=O)N3CCCC3C(=O)N(C)[C@@H](C)C(=O)N[C@@H](C)C(=O)N3C[C@@H](C)CC3C(=O)O[C@H]2C)cc1 (stereo partly drawn) [Compound 26, (2S)-3-(3,5-Difluorophenyl)-N-((2S,6S,9S,11aS,17S,18S)-2,6,9,10,18-Pentamethyl-5,8,11,16,20-Pentaoxohexadecahydro-1H,5H,16H-Dipyrrolo[2,1-C:2′,1′-L][1]Oxa[4,7,10,13]Tetraazacyclohexadecin-17-Yl)-2-(3-(P-Tolyl)Ureido)Propanamide]		0.29 ± 0.01	8.2 ± 0.3			40.5 ± 3.8	200	0.125 (≈ 0.0977 µg/mL)	0.5 (≈ 0.391 µg/mL)	0.03 (≈ 0.0235 µg/mL)	0.2 (≈ 0.156 µg/mL)
Cc1ccc(NC(=O)N[C@@H](Cc2cc(F)cc(F)c2)C(=O)N[C@@H]2C(=O)N3CCCC3C(=O)N3CCOCC3C(=O)N[C@@H](C)C(=O)N3C[C@@H](C)CC3C(=O)O[C@H]2C)cc1 (stereo partly drawn) [Compound 33, (S)-3-(3,5-Difluorophenyl)-2-(3-(P-Tolyl)Ureido)-N-((6aS,12S,13S,1 5aS,17S,21S,23aS)-13,17,21-Trimethyl-6,11,15,20,23-Pentaoxooctadecahydro-6H,11H,15H-[1,4]Oxazino[3,4-I]Dipyrrolo[2,1-C:2′,1′-L][1]Oxa[4,7,10,13]Tetraazacyclohexadecin-12-Yl)Propanamide]		0.39 ± 0.02	5.6 ± 0.3			41 ± 4.3	200	0.098 (≈ 0.0794 µg/mL)	0.39 (≈ 0.316 µg/mL)	0.2 (≈ 0.162 µg/mL)	0.2 (≈ 0.162 µg/mL)
Cc1ccc(NC(=O)N[C@@H](Cc2cc(F)cc(F)c2)C(=O)N[C@@H]2C(=O)N3CCCC3C(=O)N3CCCCC3C(=O)N[C@@H](C)C(=O)N3C[C@H](C)CC3C(=O)O[C@H]2C)cc1 (stereo partly drawn) [Compound 39, (S)-3-(3,5-Difluorophenyl)-2-(3-(P-Tolyl)Ureido)-N-((2R,6S,8aS,14aS,20S,21S,23aS)-2,6,21-Trimethyl-5,8,14,19,23-Pentaoxooctadecahydro-1H,5H,14H,19H-Pyrido[2,1-I]Dipyrrolo[2,1-C:2′,1′-L][1]Oxa[4,7,10,13]Tetraazacyclohexadecin-20-Yl)Propanamide]		0.48 ± 0.03	9 ± 0.4			40 ± 4.1	100	0.05 (≈ 0.0404 µg/mL)	0.2 (≈ 0.162 µg/mL)	0.02 (≈ 0.0162 µg/mL)	0.05 (≈ 0.0404 µg/mL)
Cc1ccc(NC(=O)N[C@@H](Cc2ccccc2)C(=O)N[C@H]2COC(=O)C3C[C@H](C)CN3C(=O)[C@H](C)NC(=O)C3CCCCN3C(=O)C3CCCN3C2=O)cc1 (stereo partly drawn) [Compound 43, (S)—N-((2S,6S,8aS,14aS,20S,23aS)-2,6-Dimethyl-5,8,14,19,23-Pentaoxooctadecahydro-1H,5H,14H,19H-Pyrido[2,1-I]Dipyrrolo[2,1-C:2′,1′-L][1]Oxa[4,7,10,13]Tetraazacyclohexadecin-20-Yl)-3-Phenyl-2-(3-(P-Tolyl)Ureido)Propanamide]		0.37 ± 0.03	6.57 ± 0.2			74.5 ± 8.8	>200	0.2 (≈ 0.152 µg/mL)	0.8 (≈ 0.606 µg/mL)	0.4 (≈ 0.303 µg/mL)	1.6 (≈ 1.21 µg/mL)
